Measurements published in patent US20200231638A1, “STABILIZED ANTI-MICROBIAL PEPTIDES” (priority 2015, published 2020).
Bridge positions count the residues as written; N and C are the ends. Square brackets hold non-standard residues; d marks the D form. Peptide text beside a SMILES is read from it. S5 = C=CCCC[C@](C)(N)C(=O)O; Nle = CCCC[C@H](N)C(=O)O

How the values were obtained:
human red blood cells = type: cell-based; details: red cells of human, 1 h, 25
Method in brief: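 Hemolysis expressed as absorbance of released hemoglobin (570 nm) normalized between untreated and 1% Triton-X100 controls, with MHC taken as peptide concentration giving under 1% release. Peptide dilutions were exposed for 1 h at 37° C to a 1% (v/v) suspension of washed human red cells in PBS.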

E. coli = type: cell-based, Escherichia coli
Method in brief: (§1)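 Broth microdilution; anion-exchange-refined MHB; overnight culture at 37° C, diluted and regrown; inoculum 5×10^5 CFU/ml final; peptides serially diluted in water; 20-24 h, 37° C; MIC = lowest concentration without visible growth.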

B. cereus = type: cell-based, Bacillus cereus
Method in brief: as §1

P. aeruginosa = type: cell-based, Pseudomonas aeruginosa
Method in brief: as §1

S. aureus = type: cell-based, Staphylococcus aureus
Method in brief: as §1

| Structure (SMILES) | % Hemolysis at 25 μg/ml (human red blood cells) [%] | MIC E. coli (E. coli) [µg/mL] | MIC B. cereus (B. cereus) [µg/mL] | MIC P. aeruginosa (P. aeruginosa) [µg/mL] | MIC S. aureus (S. aureus) [µg/mL] |
| --- | --- | --- | --- | --- | --- |
| CC[C@H](C)[C@H](NC(=O)CN)C(=O)NCC(=O)N[C@@H](CCCCN)C(=O)N[C@@H](Cc1ccccc1)C(=O)N[C@@H](CC(C)C)C(=O)N[C@@H](Cc1c[nH]cn1)C(=O)N[C@@H](CO)C(=O)N[C@@H](C)C(=O)N[C@@H](CCCCN)C(=O)N[C@@H](CCCCN)C(=O)N[C@@H](Cc1ccccc1)C(=O)NCC(=O)N[C@@H](CCCCN)C(=O)N[C@@H](C)C(=O)N[C@@]1(C)CCCC=CCCC[C@@](C)(C(=O)N[C@@H](CCC(=O)O)C(=O)N[C@@H](CC(N)=O)C(=O)N[C@@H](CO)C(N)=O)NC(=O)[C@H](CCC(=O)O)NC(=O)CNC(=O)[C@H](C(C)C)NC1=O [Mag(i + 4)15(B21E), GIGKFLHSAKKFGKAXVGEXENS] (H-GIGKFLHSAKKFGKA[S5]VGE[S5]ENS-NH2; staple 16-20) | 0.8 | 25 | >50 | >50 | >50 |
| CC[C@H](C)[C@H](NC(=O)CN)C(=O)NCC(=O)N[C@@H](CCCCN)C(=O)N[C@@H](Cc1ccccc1)C(=O)N[C@@H](CC(C)C)C(=O)N[C@@H](Cc1c[nH]cn1)C(=O)N[C@@H](CO)C(=O)N[C@@H](C)C(=O)N[C@@H](CCCCN)C(=O)N[C@@H](CCCCN)C(=O)N[C@@H](Cc1ccccc1)C(=O)NCC(=O)N[C@@H](CCCCN)C(=O)N[C@@H](C)C(=O)N[C@@]1(C)CCCC=CCCC[C@@](C)(C(=O)N[C@@H](CCCCN)C(=O)N[C@@H](CC(N)=O)C(=O)N[C@@H](CO)C(N)=O)NC(=O)[C@H](CCC(=O)O)NC(=O)CNC(=O)[C@H](C(C)C)NC1=O [Mag(i + 4)15(B21K), GIGKFLHSAKKFGKAXVGEXKNS] (H-GIGKFLHSAKKFGKA[S5]VGE[S5]KNS-NH2; staple 16-20) | 3.7 | 1.6 | 25 | 6.2 | >50 |
| CCCC[C@H](NC(=O)[C@]1(C)CCCC=CCCC[C@](C)(NC(=O)[C@H](C)NC(=O)[C@H](CCC(=O)O)NC(=O)CNC(=O)[C@H](Cc2ccccc2)NC(=O)[C@H](CCCCN)NC(=O)[C@H](CCCCN)NC(=O)[C@H](C)NC(=O)[C@H](CO)NC(=O)[C@H](Cc2c[nH]cn2)NC(=O)[C@H](CC(C)C)NC(=O)[C@H](Cc2ccccc2)NC(=O)[C@H](CCCCN)NC(=O)CNC(=O)[C@@H](NC(=O)CN)[C@@H](C)CC)C(=O)N[C@@H](C(C)C)C(=O)NCC(=O)N[C@@H](CCC(=O)O)C(=O)N1)C(=O)N[C@@H](CC(N)=O)C(=O)N[C@@H](CO)C(N)=O [Mag(i + 4)15(E14E), GIGKFLHSAKKFGEAXVGEXBNS] (H-GIGKFLHSAKKFGEA[S5]VGE[S5][Nle]NS-NH2; staple 16-20) | 3.3 | 12.5 | 50 | >50 | >50 |
| CCCC[C@H](NC(=O)[C@]1(C)CCCC=CCCC[C@](C)(NC(=O)[C@H](C)NC(=O)[C@H](CCCCN)NC(=O)CNC(=O)[C@H](Cc2ccccc2)NC(=O)[C@H](CCCCN)NC(=O)[C@H](CCCCN)NC(=O)[C@H](C)NC(=O)[C@H](CO)NC(=O)[C@H](Cc2c[nH]cn2)NC(=O)[C@H](CC(C)C)NC(=O)[C@H](Cc2ccccc2)NC(=O)[C@H](CCCCN)NC(=O)CNC(=O)[C@@H](NC(=O)CN)[C@@H](C)CC)C(=O)N[C@@H](C(C)C)C(=O)NCC(=O)N[C@@H](CCCCN)C(=O)N1)C(=O)N[C@@H](CC(N)=O)C(=O)N[C@@H](CO)C(N)=O [Mag(i + 4)15(E19K), GIGKFLHSAKKFGKAXVGKXBNS] (H-GIGKFLHSAKKFGKA[S5]VGK[S5][Nle]NS-NH2; staple 16-20) | 7.1 | 1.6 | 6.2 | 3.1 | 12.5 |
| CCCC[C@H](NC(=O)[C@]1(C)CCCC=CCCC[C@](C)(NC(=O)[C@H](C)NC(=O)[C@H](CCCCN)NC(=O)CNC(=O)[C@H](Cc2ccccc2)NC(=O)[C@H](CCCCN)NC(=O)[C@H](CCCCN)NC(=O)[C@H](C)NC(=O)[C@H](CO)NC(=O)[C@H](Cc2c[nH]cn2)NC(=O)[C@H](CC(C)C)NC(=O)[C@H](CCCCN)NC(=O)[C@H](CCCCN)NC(=O)CNC(=O)[C@@H](NC(=O)CN)[C@@H](C)CC)C(=O)N[C@@H](C(C)C)C(=O)NCC(=O)N[C@@H](CCC(=O)O)C(=O)N1)C(=O)N[C@@H](CC(N)=O)C(=O)N[C@@H](CO)C(N)=O [Mag(i + 4)15(F5K), GIGKKLHSAKKFGRAXVGEXBNS] (H-GIGKKLHSAKKFGKA[S5]VGE[S5][Nle]NS-NH2; staple 16-20; N-terminus and C-terminus assumed) | 1.7 | 3.1 | >50 | 12.5 | >50 |
| CCCC[C@H](NC(=O)[C@]1(C)CCCC=CCCC[C@](C)(NC(=O)[C@H](C)NC(=O)[C@H](CCCCN)NC(=O)CNC(=O)[C@H](CCC(=O)O)NC(=O)[C@H](CCCCN)NC(=O)[C@H](CCCCN)NC(=O)[C@H](C)NC(=O)[C@H](CO)NC(=O)[C@H](Cc2c[nH]cn2)NC(=O)[C@H](CC(C)C)NC(=O)[C@H](Cc2ccccc2)NC(=O)[C@H](CCCCN)NC(=O)CNC(=O)[C@@H](NC(=O)CN)[C@@H](C)CC)C(=O)N[C@@H](C(C)C)C(=O)NCC(=O)N[C@@H](CCC(=O)O)C(=O)N1)C(=O)N[C@@H](CC(N)=O)C(=O)N[C@@H](CO)C(N)=O [Mag(i + 4)15(F12E), GIGKFLHSAKKEGKAXVGEXBNS] (H-GIGKFLHSAKKEGKA[S5]VGE[S5][Nle]NS-NH2; staple 16-20) | 0.6 | 50 | >50 | >50 | >50 |
| CCCC[C@H](NC(=O)[C@]1(C)CCCC=CCCC[C@](C)(NC(=O)[C@H](C)NC(=O)[C@H](CCCCN)NC(=O)CNC(=O)[C@H](CCCCN)NC(=O)[C@H](CCCCN)NC(=O)[C@H](CCCCN)NC(=O)[C@H](C)NC(=O)[C@H](CO)NC(=O)[C@H](Cc2c[nH]cn2)NC(=O)[C@H](CC(C)C)NC(=O)[C@H](Cc2ccccc2)NC(=O)[C@H](CCCCN)NC(=O)CNC(=O)[C@@H](NC(=O)CN)[C@@H](C)CC)C(=O)N[C@@H](C(C)C)C(=O)NCC(=O)N[C@@H](CCC(=O)O)C(=O)N1)C(=O)N[C@@H](CC(N)=O)C(=O)N[C@@H](CO)C(N)=O [Mag(i + 4)15(F12K), GIGKFLHSAKKKGKAXVGEXBNS] (H-GIGKFLHSAKKKGKA[S5]VGE[S5][Nle]NS-NH2; staple 16-20) | 2.0 | 3.1 | >50 | 12.5 | >50 |
| CCCC[C@H](NC(=O)[C@]1(C)CCCC=CCCC[C@](C)(NC(=O)[C@H](C)NC(=O)[C@H](CCCCN)NC(=O)CNC(=O)[C@H](Cc2ccccc2)NC(=O)[C@H](CCCCN)NC(=O)[C@H](CCCCN)NC(=O)[C@H](C)NC(=O)[C@H](CO)NC(=O)[C@H](Cc2c[nH]cn2)NC(=O)[C@H](CC(C)C)NC(=O)[C@H](Cc2ccccc2)NC(=O)[C@H](CCCCN)NC(=O)CNC(=O)[C@@H](NC(=O)[C@@H](N)CCC(=O)O)[C@@H](C)CC)C(=O)N[C@@H](C(C)C)C(=O)NCC(=O)N[C@@H](CCC(=O)O)C(=O)N1)C(=O)N[C@@H](CC(N)=O)C(=O)N[C@@H](CO)C(N)=O [Mag(i + 4)15(G1E), EIGKFLHSAKKFGKAXVGEXBNS] (H-EIGKFLHSAKKFGKA[S5]VGE[S5][Nle]NS-NH2; staple 16-20) | 4.1 | 12.5 | >50 | 50 | >50 |
| CCCC[C@H](NC(=O)[C@]1(C)CCCC=CCCC[C@](C)(NC(=O)[C@H](C)NC(=O)[C@H](CCCCN)NC(=O)CNC(=O)[C@H](Cc2ccccc2)NC(=O)[C@H](CCCCN)NC(=O)[C@H](CCCCN)NC(=O)[C@H](C)NC(=O)[C@H](CO)NC(=O)[C@H](Cc2c[nH]cn2)NC(=O)[C@H](CC(C)C)NC(=O)[C@H](Cc2ccccc2)NC(=O)[C@H](CCCCN)NC(=O)CNC(=O)[C@@H](NC(=O)[C@@H](N)CCCCN)[C@@H](C)CC)C(=O)N[C@@H](C(C)C)C(=O)NCC(=O)N[C@@H](CCC(=O)O)C(=O)N1)C(=O)N[C@@H](CC(N)=O)C(=O)N[C@@H](CO)C(N)=O [Mag(i + 4)15(G1K), KIGKFLHSAKKFGKAXVGEXBNS] (H-KIGKFLHSAKKFGKA[S5]VGE[S5][Nle]NS-NH2; staple 16-20) | 4.5 | 1.6 | 12.5 | 3.1 | 25 |
